Like-named read-outs stand apart in the source and are kept apart here. Where a SMILES comes first, the peptide text is derived from it. Bridges are numbered along the chain shown (N, C = ends). [ ]: non-standard residue; d: D form. The star is where a group is joined. Decanoyl(3R-OH) = CCCCCCC[C@@H](O)CC(=O)*; dDab = NCC[C@@H](N)C(=O)O; Dab = NCC[C@H](N)C(=O)O

The subject of test [1] is C. gattii MMRL 2651. As for the experimental part:
(§1) A broth microdilution assay was initially used to characterize the antifungal activity of the cyclic lipopeptides ([39], [40]). […] common pathogenic yeasts (C. albicans, C. glabrata, C. parapsilosis, C. neoformans, and C. gattii) and one pathogenic mold (A. fumigatus) were tested to determine the MIC for each compound (Table 1) using broth microdilution. […] The only structural difference between these molecules is the presence of a phenylalanine residue at position 6 in PMB; in PME a D-leucine is present at this location (Fig. 1).
(§2) Fungal strains were stored in 15% glycerol at −80°C until use. The fungal strains used were H99 (C. neoformans type strain) ([55]), cap59Δ (an acapsular H99 mutant) ([56]), ATCC 90113 (C. neoformans), MMRL 2651 (C. gattii), ATCC 90028 (Candida albicans), ATCC 90030 (Candida glabrata), ATCC 22019 (Candida parapsilosis), and ATCC MYA 3626 (Aspergillus fumigatus). Yeasts were cultured in liquid (1% yeast extract, 2% Bacto peptone, 2% glucose) or solid (additional 2% agar) yeast extract-peptone-dextrose (YPD) media at 30°C and maintained at 4°C for no longer than 2 weeks. A. fumigatus was prepared on potato dextrose medium at 30°C and maintained at 4°C for no longer than 2 weeks.
(§3) The MICs of the yeast strains for PMB, PME, and octapeptin C4 and its derivatives were determined in accordance with CLSI M27-A2 guidelines using YNB (Becton Dickinson, USA) medium supplemented with 10 mM ammonium sulfate and 2% glucose, a final inoculum concentration of 1.5 × 10^3 to 2.0 × 10^3 cells/ml, and incubation at 35°C for 72 h ([39]). […] The MICs for PMB, PME, and octapeptin C4 for A. fumigatus were determined in accordance with the CLSI M38-A2 guidelines ([40]) using synthetic RPMI 1640 medium (with glutamine, without bicarbonate and with phenol red; Life Technologies, USA). The final inoculum concentration was 0.4 × 10^4 to 5 × 10^4 cells/ml, with incubation at 35°C for 48 h. […] All assays were completed in triplicate. Fluconazole was used as a positive control where the MIC was determined at both 50% growth (in accordance with CLSI M27-A2 guidelines) and when there was a “no visible growth” reading.

Test [2] concerns C. neoformans ATCC 90113. To be noted: for MICs against various Cryptococcus strains: ATCC 90113: ATCC 90113, 72 h. As for the experimental part: as §1, §2, §3
Test [3] deals with C. neoformans H99. To be noted: for MICs against various Cryptococcus strains: H99: H99, 72 h; for MIC C. neoformans H99: Table 1, CLSI M27-A2, YNB medium, 35°C, no visible growth after 72 h, triplicate. As for the experimental part: as §1, §2, §3
Test [4] relates to C. neoformans H99 (cap59Δ). The class given is cell-based, Cryptococcus neoformans. To be noted: triplicate; for MICs against various Cryptococcus strains: H99 (cap59Δ): Table 2, values consistent across replicates.
From the text: The different susceptibility of C. neoformans and C. gattii to PMB compared to other pathogenic fungi such as C. albicans and A. fumigatus has been postulated to arise from differences in cell surface composition ([38]). One key difference is the presence of a negatively charged polysaccharide capsule in Cryptococcus spp. proposed to concentrate the cationic lipopeptides at the cell surface ([38]). To examine this potential interaction for the octapeptin series, a C. neoformans cap59Δ mutant strain deficient in the secretion of negatively charged glucuronoxylomannan (an α1–3-linked mannan containing β1,2 and β1,4 xylosyl substitutions, as well as β1,2-linked glucuronyl residues) ([41], [42]), was tested against octapeptin C4 in comparison to PMB.
as §2, §3

Test [5] concerns C. albicans. Nature of the test: Broth microdilution MIC. It is filed as cell-based, Candida albicans. To be noted: ATCC 90028; CLSI M27-A2, YNB medium, 35°C, no visible growth after 48 h; triplicate. As for the experimental part:
as §1, §2
(§4) […] The final inoculum concentration was 0.4 × 10^4 to 5 × 10^4 cells/ml, with incubation at 35°C for 48 h. […] All assays were completed in triplicate. […]
Background: In broth dilution the organism is exposed to a series of concentrations in liquid medium.

Test [6] relates to C. glabrata. The experiment in a line: Broth microdilution MIC. To be noted: ATCC 90030; CLSI M27-A2, YNB medium, 35°C, no visible growth after 48 h; triplicate. The class given is cell-based, Candida glabrata. As for the experimental part:
as §1, §2, §4

The test system of test [7] is C. parapsilosis. Nature of the test: Broth microdilution MIC. The class given is cell-based, Candida parapsilosis. To be noted: ATCC 22019; CLSI M27-A2, YNB medium, 35°C, no visible growth after 48 h; triplicate. As for the experimental part:
as §1, §2, §4

For test [8], the system named is A. fumigatus. The experiment in a line: Broth microdilution MIC (CLSI M38-A2). The following applies: ATCC MYA 3626; CLSI M38-A2, RPMI 1640, 35°C, no visible growth after 48 h; triplicate. It is filed as cell-based, Aspergillus fumigatus. As for the experimental part: as §1
Fungal strains were stored in 15% glycerol at −80°C until use. […]
The MICs of the yeast strains for PMB, PME, and octapeptin C4 and its derivatives were determined in accordance with CLSI M27-A2 guidelines using YNB (Becton Dickinson, USA) medium supplemented with 10 mM ammonium sulfate and 2% glucose, a final inoculum concentration of 1.5 × 10^3 to 2.0 × 10^3 cells/ml, and incubation at 35°C for 72 h ([39]). […] The MICs for PMB, PME, and octapeptin C4 for A. fumigatus were determined in accordance with the CLSI M38-A2 guidelines ([40]) using synthetic RPMI 1640 medium (with glutamine, without bicarbonate and with phenol red; Life Technologies, USA). […]

In test [9] the test system is capsule-induced or -suppressed C. neoformans H99 cells. The experiment in a line: In vitro time course assay of capsule influence. The following applies: PMB at 12.5 μM. The class given is cell-based, Cryptococcus neoformans. As for the experimental part: (A) C. neoformans grown on capsule inducing RPMI 1640 agar medium (without L-glutamine and sodium bicarbonate) with incubation at 37°C in 5% CO2 for 3 days. Scale bar, 20 μm. (B) C. neoformans grown on capsule-suppressing media, YPD containing 1 M NaCl at 30°C in ambient air for 3 days. […] The data represent the means of two replicates, and the error bars represent the standard errors of the mean (SEM).
Capsule induction of strain H99 was achieved as described by Zhai et al. ([37]) with growth on RPMI 1640 (without L-glutamine and sodium bicarbonate) (Sigma, Australia) agar medium and incubation at 37°C in 5% CO2 and capsule suppression by growth on YPD containing 1 M NaCl at 30°C in ambient air. After 3 days, the cells from each culture were collected, washed twice with phosphate-buffered saline (PBS), and resuspended in PBS to avoid changes in the capsule at a density of 1,500 to 2,000 cells/ml. Cell suspensions were treated with test compounds at the determined MIC value. The compounds tested were PMB sulfate, octapeptin C4, and the octapeptin C4 alanine scan derivatives P1L, P1D, P4, P3, P4L, P4D, P5, P6, P7, and P8. At 0, 1, 2, 4, 6, and 8 h after inoculation, samples from each treatment were spread onto a YPD plate, followed by incubation at 30°C for 3 days, at which time the colonies were counted. The assay was repeated in duplicate, and paired sample t tests were performed using GraphPad Prism v7.0 (GraphPad Software, USA).

In test [10] the test system is melanized and nonmelanized C. neoformans cells. The experiment in a line: In vitro time course assay of melanization effect. It is filed as cell-based, Cryptococcus neoformans. To be noted: melanin induced on L-DOPA agar vs suppressed on YPD agar; PMB at 12.5 μM, octapeptin C4 at 1.56 μM; 0-8 h; two replicates. As for the experimental part: (A) Melanin suppressed C. neoformans. (B) Melanin induced C. neoformans. […] Samples from each flask were taken 0, 1, 2, 4, 6, and 8 h after inoculation, spread onto a YPD plate, and incubated at 30°C for 3 days, at which time the colonies were counted. The data represent the means of two replicates, and the error bars represent the SEM.
Melanization was induced by growth on L-DOPA agar medium at 30°C and suppressed by growth on YPD agar medium at 30°C. Cells were grown over 3 days and collected, washed twice in PBS, and then resuspended in PBS at a density of 1,500 to 2,000 cells/ml. Aliquots of the cells were treated with PMB sulfate, octapeptin C4, and the octapeptin C4 derivatives P1L, P1D, P4, P3, P4L, P4D, P5, P6, P7, and P8 at the determined MICs. At 0, 1, 2, 4, 6, and 8 h after inoculation, samples of the suspension were spread onto YPD agar and incubated at 30°C for 3 days, and the colonies were counted. The assay was repeated in duplicate, and paired sample t tests were performed in GraphPad Prism v7.0.

Test [11] deals with common fungal pathogens. The experiment in a line: Broth microdilution MIC, panel of fungal pathogens. The class given is cell-based. The following applies: highest concentration 100 μg/ml. As for the experimental part: as §1
The MICs of the yeast strains for PMB, PME, and octapeptin C4 and its derivatives were determined in accordance with CLSI M27-A2 guidelines using YNB (Becton Dickinson, USA) medium supplemented with 10 mM ammonium sulfate and 2% glucose, a final inoculum concentration of 1.5 × 10^3 to 2.0 × 10^3 cells/ml, and incubation at 35°C for 72 h ([39]). […] The MICs for PMB, PME, and octapeptin C4 for A. fumigatus were determined in accordance with the CLSI M38-A2 guidelines ([40]) using synthetic RPMI 1640 medium (with glutamine, without bicarbonate and with phenol red; Life Technologies, USA). The final inoculum concentration was 0.4 × 10^4 to 5 × 10^4 cells/ml, with incubation at 35°C for 48 h. […] All assays were completed in triplicate. […]

Take `CCCCCCC[C@@H](O)CC(=O)N[C@H](CCN)C(=O)N[C@H]1CCNC(=O)[C@H](CC(C)C)NC(=O)[C@H](C)NC(=O)[C@H](CCN)NC(=O)[C@H](CC(C)C)NC(=O)[C@@H](Cc2ccccc2)NC(=O)[C@H](CCN)NC1=O` [Compound P7] ({Decanoyl(3R-OH)}-[dDab][Dab][Dab][dF]L[Dab]AL; lactam 2-C): the “MICs against various Cryptococcus strains: MMRL 2651” value in test [1] (Table 2, C. gattii, triplicate, values consistent across replicates) was found to be 12.5 µg/mL. In addition, in [2], the “MICs against various Cryptococcus strains: ATCC 90113” value came to 6.25 µg/mL. In addition, in [3], the “MICs against various Cryptococcus strains: H99” value is 6.25 µg/mL. Further, the “MICs against various Cryptococcus strains: H99 (cap59Δ)” value in [4] came to 12.5 µg/mL.
`CCCCCCC[C@@H](O)CC(=O)N[C@H](CCN)C(=O)N[C@H]1CCNC(=O)[C@H](C)NC(=O)[C@H](CCN)NC(=O)[C@H](CCN)NC(=O)[C@H](CC(C)C)NC(=O)[C@@H](Cc2ccccc2)NC(=O)[C@H](CCN)NC1=O` [Compound P8] ({Decanoyl(3R-OH)}-[dDab][Dab][Dab][dF]L[Dab][Dab]A; lactam 2-C): in test [1] (72 h), the “MICs against various Cryptococcus strains: MMRL 2651” value is 50.0 µg/mL. The “MICs against various Cryptococcus strains: ATCC 90113” value in [2] was found to be 6.25 µg/mL. The “MICs against various Cryptococcus strains: H99” value in test [3] stood at 50.0 µg/mL. For the same compound, the “MICs against various Cryptococcus strains: H99 (cap59Δ)” value in test [4] was found to be 100 µg/mL.
Consider polymyxin B [PMB], for which the “MIC C. albicans” value in test [5] was over 100 mg/L. Besides, the “MIC C. glabrata” value in test [6] was over 100 mg/L. Moreover, in test [7], the “MIC C. parapsilosis” value was over 100 mg/L. The “MIC A. fumigatus” value in [8] was over 100 mg/L. Moreover, the “MIC C. gattii” value in test [1] (Table 1, MMRL 2651, CLSI M27-A2, YNB medium, 35°C, 72 h, triplicate) was 25.0 mg/L. For the same compound, the “MIC C. neoformans ATCC 90113” value in test [2] (Table 1, CLSI M27-A2, YNB medium, 35°C, no visible growth after 72 h, triplicate) is 12.5 mg/L. In test [3], the “MIC C. neoformans H99” value amounted to 12.5 mg/L. Also, the “MIC C. neoformans H99 (cap59Δ)” value in test [4] (Table 1, CLSI M27-A2, YNB medium, 35°C, no visible growth after 72 h) was found to be 50 mg/L. In test [9] (H99, capsule induced on RPMI 1640 agar 37°C 5% CO2, cells in PBS, colony counts, two replicates), the “time to 50% reduction in viability, fungal cells with large capsule” value was “around 1 h”. In addition, the “time to 50% reduction in viability, capsule suppressed fungal cells” value in [9] (H99, capsule suppressed on YPD with 1 M NaCl 30°C, relative to large capsule cells) is reported as “five times longer”. Besides, in test [9] (H99, octapeptin C4 at 1.56 μM, 0-8 h, two replicates), the “effect of capsule formation on fungicidal activity” value is “enhanced the fungicidal effect”. For the same compound, the “effect of melanization on fungicidal activity” value in test [10] is on record as “no difference in activity”.
For the compound polymyxin E [PME], the “MIC C. albicans” value in [5] is over 100 mg/L. For the same compound, the “MIC C. glabrata” value in test [6] is over 100 mg/L. In addition, in test [7], the “MIC C. parapsilosis” value was over 100 mg/L. Besides, the “MIC A. fumigatus” value in test [8] is over 100 mg/L. The “MIC C. neoformans H99” value in test [3] is 100 mg/L. Further, the “antifungal activity against any of the species analyzed” value in [11] was “did not show significant antifungal activity”.

The record behind these values is PMC5786788, “Antimicrobial Octapeptin C4 Analogues Active against Cryptococcus Species” (Antimicrobial Agents and Chemotherapy, 2018).
